According to patent publication US10787452B2 (Vertex Pharmaceuticals Incorporated, priority 2012, dated 2020):

Tested on: HCT116 colorectal cancer cells
Assay: Cisplatin sensitization assay (96 h cell viability MTS);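 further: compound concentration needed to lower the Cisplatin-alone IC50 by a set fold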
Format: cell-based
Settings: 96 h MTS, compound plus Cisplatin
Outline: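 Test compound and cisplatin were added together as a full matrix of 2-fold serial dilutions, each from a top final concentration of 10 μM. Cells were incubated 96 h at 37° C in 5% CO2, then viability was read by MTS after a further 1 h incubation.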

Compound	Cisplatin Sensitization Assay
CN1CCC(NC(=O)C2CCN(c3c(F)cncc3NC(=O)c3c(N)nn4cc(F)cnc34)CC2)CC1 [I-G-20, 2-amino-6-fluoro-N-(5-fluoro-4-(4-((1-methylpiperidin-4-yl)carbamoyl)piperidin-1-yl)pyridin-3-yl)pyrazolo[1,5-a]pyrimidine-3-carboxamide]	+ (Compounds with a Cisplatin sensitization value >0.2 μM but <5 μM are marked with “+.”)
COC1CN(C2CCN(c3ccncc3NC(=O)c3c(N)nn4cc(Cl)cnc34)CC2)C1 [I-N-107, 2-amino-6-chloro-N-(4-(4-(3-methoxyazetidin-1-yl)piperidin-1-yl)pyridin-3-yl)pyrazolo[1,5-a]pyrimidine-3-carboxamide]	+++ (Compounds with a Cisplatin sensitization value of <0.02 μM are marked with “+++.”)
Nc1nn2cc(F)cnc2c1C(=O)Nc1cnccc1N1CCC(C(=O)N2CCOCC2)CC1 [I-G-85, 2-amino-6-fluoro-N-(4-(4-(morpholine-4-carbonyl)piperidin-1-yl)pyridin-3-yl)pyrazolo[1,5-a]pyrimidine-3-carboxamide]	+++ (Compounds with a Cisplatin sensitization value of <0.02 μM are marked with “+++.”)
CN1CCCN(C(=O)C2CCN(c3c(F)cncc3NC(=O)c3c(N)nn4cc(F)cnc34)CC2)CC1 [I-G-6, 2-amino-6-fluoro-N-(5-fluoro-4-(4-(4-methyl-1,4-diazepane-1-carbonyl)piperidin-1-yl)pyridin-3-yl)pyrazolo[1,5-a]pyrimidine-3-carboxamide]	+++ (Compounds with a Cisplatin sensitization value of <0.02 μM are marked with “+++.”)
Cn1cc(-c2ccncc2NC(=O)c2c(N)nn3cc(F)cnc23)ccc1=O [I-C-59, 2-amino-6-fluoro-N-(1-methyl-6-oxo-1,6-dihydro-[3,4′-bipyridin]-3′-yl)pyrazolo[1,5-a]pyrimidine-3-carboxamide]	++ (Compounds with a Cisplatin sensitization value >0.02 μM but <0.2 μM are marked with “++.”)
Nc1nn2cc(F)cnc2c1C(=O)Nc1cnccc1N1CCN2CCOC[C@H]2C1 [I-N-116, (R)-2-amino-6-fluoro-N-(4-(hexahydropyrazino[2,1-c][1,4]oxazin-8(1H)-yl)pyridin-3-yl)pyrazolo[1,5-a]pyrimidine-3-carboxamide]	++ (Compounds with a Cisplatin sensitization value >0.02 μM but <0.2 μM are marked with “++.”)
CN1CC[C@@H](Oc2ccncc2NC(=O)c2c(N)nn3cc(Cl)cnc23)C1 [I-O-63, (R)-2-amino-6-chloro-N-(4-((1-methylpyrrolidin-3-yl)oxy)pyridin-3-yl)pyrazolo[1,5-a]pyrimidine-3-carboxamide]	++ (Compounds with a Cisplatin sensitization value >0.02 μM but <0.2 μM are marked with “++.”)
Nc1nn2cc(F)cnc2c1C(=O)Nc1cncc(F)c1N1CCN2CCOC[C@@H]2C1 [I-N-137, (S)-2-amino-6-fluoro-N-(5-fluoro-4-(hexahydropyrazino[2,1-c][1,4]oxazin-8(1H)-yl)pyridin-3-yl)pyrazolo[1,5-a]pyrimidine-3-carboxamide]	++ (Compounds with a Cisplatin sensitization value >0.02 μM but <0.2 μM are marked with “++.”)
Nc1nn2cc(Cl)cnc2c1C(=O)Nc1cnccc1N1CCN(C2CCC2)CC1 [I-N-48, 2-amino-6-chloro-N-(4-(4-cyclobutylpiperazin-1-yl)pyridin-3-yl)pyrazolo[1,5-a]pyrimidine-3-carboxamide]	++ (Compounds with a Cisplatin sensitization value >0.02 μM but <0.2 μM are marked with “++.”)
Nc1nn2cc(F)cnc2c1C(=O)Nc1cncc(Cl)c1N1CCN(C2CCOC2)CC1 (stereo not shown) [I-N-124, 2-amino-N-(5-chloro-4-(4-(tetrahydrofuran-3-yl)piperazin-1-yl)pyridin-3-yl)-6-fluoropyrazolo[1,5-a]pyrimidine-3-carboxamide]	+++ (Compounds with a Cisplatin sensitization value of <0.02 μM are marked with “+++.”)
